The text below walks through data of patent publication EP0463456A1, “Phosphorus-containing HMG-CoA reductase inhibitors, new intermediates and their use” (E.R. SQUIBB & SONS, INC., priority 1990, dated 1992).

This assay has as its target T1, Human skin fibroblasts (Homo sapiens, UniProt P04035).
T1 sequence (P04035 1-888): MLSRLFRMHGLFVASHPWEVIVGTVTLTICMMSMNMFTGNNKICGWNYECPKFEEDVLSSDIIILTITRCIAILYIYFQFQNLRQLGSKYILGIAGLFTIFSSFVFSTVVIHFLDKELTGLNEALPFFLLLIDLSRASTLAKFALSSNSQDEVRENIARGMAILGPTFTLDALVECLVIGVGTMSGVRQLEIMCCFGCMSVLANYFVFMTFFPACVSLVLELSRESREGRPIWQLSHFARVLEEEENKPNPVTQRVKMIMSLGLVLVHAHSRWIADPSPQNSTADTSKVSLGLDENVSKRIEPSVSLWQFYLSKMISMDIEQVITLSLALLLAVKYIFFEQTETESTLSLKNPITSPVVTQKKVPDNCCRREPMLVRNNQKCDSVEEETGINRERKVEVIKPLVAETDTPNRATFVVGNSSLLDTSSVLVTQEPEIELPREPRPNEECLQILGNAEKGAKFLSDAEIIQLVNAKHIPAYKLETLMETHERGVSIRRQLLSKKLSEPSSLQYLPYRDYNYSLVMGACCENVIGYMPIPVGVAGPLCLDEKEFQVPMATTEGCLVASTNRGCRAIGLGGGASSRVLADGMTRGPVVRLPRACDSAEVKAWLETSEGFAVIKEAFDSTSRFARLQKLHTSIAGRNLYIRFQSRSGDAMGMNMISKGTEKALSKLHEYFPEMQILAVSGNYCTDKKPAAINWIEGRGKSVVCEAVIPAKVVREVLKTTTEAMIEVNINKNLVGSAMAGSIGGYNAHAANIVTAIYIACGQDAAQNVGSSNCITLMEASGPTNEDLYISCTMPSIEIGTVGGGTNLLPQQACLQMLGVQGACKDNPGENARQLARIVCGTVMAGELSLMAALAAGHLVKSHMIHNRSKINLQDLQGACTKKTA
Nature of the assay: Cholesterol Synthesis in Human Skin Fibroblasts (14C-acetate incorporation into cholesterol). The following applies: inhibition of 14C-acetate incorporation into cholesterol; 30 minutes preincubation, 4 hours with acetate; read-out: Fibroblasts 150. Type of assay: cell-based. As for the experimental part:
3) Cholesterol Synthesis in Human Skin Fibroblasts
Compound selectivity favoring greater inhibitory activity in hepatic tissue would be an attribute for a cholesterol synthesis inhibitor. Therefore, in addition to evaluating cholesterol synthesis inhibitors in hepatocytes, these compounds are also tested for their activity as inhibitors of cholesterol synthesis in cultured fibroblasts. […]
a. Human Skin Fibroblast Cultures
Human skin fibroblasts (passage 7-27) are grown in Eagles' minimal essential medium (EM) containing 10% fetal calf serum. For each experiment, stock cultures are trypsonized to disperse the cell monolayer, counted, and plated in 35 mm tissue culture wells (5x10^S cells/2.0 ml). […]
Induced fibroblast cultures are washed with EMEM100 (Earle's minimal essential medium). […] The organic phase is dried under nitrogen, and the residue resuspended in chloroform:methanol (2:1) (100 µl), and the total sample spotted on silica gel (LK6D) thin-layer plates, V, VO and analyzed as described for hepatocytes.
Inhibition of cholesterol synthesis is determined by comparing the percent of label in the cholesterol peak from control and drug-treated cultures. Results are expressed as 150 values, and are derived from composite dose response curves from two or more experiments. A 95% confidence interval for the 150 value is also calculated from the composite dose response curves.

In the case of “(S)-4-[[[4-(4-Fluorophenyl)-1,2-bis(1-methylethyl)-5-phenyl-1H-pyrrol-3-yl]-ethynyl]hydroxyphosphinyl]-3-hydroxybutanoic acid, dilithium salt [SQ 34,346]”, the IC50 is 2500 nM.
